Activity calls are given as the source filed them.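 Rule for the calls: active = in confirmatory dose-response testing, peak deubiquitinase inhibition of 30% or more; inactive = the rest.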
Molecular target: Ubiquitin carboxyl-terminal hydrolase 28 (Homo sapiens) (UniProt Q96RU2)
Test: Concentration-response biochemical assay confirming initial hits as inhibitors of ubiquitin-specific protease 28 (AID 1645866)
Conditions: purified USP28, ubiquitin-rhodamine fluorescence, 30 min

Sequence of Ubiquitin carboxyl-terminal hydrolase 28 (Homo sapiens) (Q96RU2 whole entry, looked up): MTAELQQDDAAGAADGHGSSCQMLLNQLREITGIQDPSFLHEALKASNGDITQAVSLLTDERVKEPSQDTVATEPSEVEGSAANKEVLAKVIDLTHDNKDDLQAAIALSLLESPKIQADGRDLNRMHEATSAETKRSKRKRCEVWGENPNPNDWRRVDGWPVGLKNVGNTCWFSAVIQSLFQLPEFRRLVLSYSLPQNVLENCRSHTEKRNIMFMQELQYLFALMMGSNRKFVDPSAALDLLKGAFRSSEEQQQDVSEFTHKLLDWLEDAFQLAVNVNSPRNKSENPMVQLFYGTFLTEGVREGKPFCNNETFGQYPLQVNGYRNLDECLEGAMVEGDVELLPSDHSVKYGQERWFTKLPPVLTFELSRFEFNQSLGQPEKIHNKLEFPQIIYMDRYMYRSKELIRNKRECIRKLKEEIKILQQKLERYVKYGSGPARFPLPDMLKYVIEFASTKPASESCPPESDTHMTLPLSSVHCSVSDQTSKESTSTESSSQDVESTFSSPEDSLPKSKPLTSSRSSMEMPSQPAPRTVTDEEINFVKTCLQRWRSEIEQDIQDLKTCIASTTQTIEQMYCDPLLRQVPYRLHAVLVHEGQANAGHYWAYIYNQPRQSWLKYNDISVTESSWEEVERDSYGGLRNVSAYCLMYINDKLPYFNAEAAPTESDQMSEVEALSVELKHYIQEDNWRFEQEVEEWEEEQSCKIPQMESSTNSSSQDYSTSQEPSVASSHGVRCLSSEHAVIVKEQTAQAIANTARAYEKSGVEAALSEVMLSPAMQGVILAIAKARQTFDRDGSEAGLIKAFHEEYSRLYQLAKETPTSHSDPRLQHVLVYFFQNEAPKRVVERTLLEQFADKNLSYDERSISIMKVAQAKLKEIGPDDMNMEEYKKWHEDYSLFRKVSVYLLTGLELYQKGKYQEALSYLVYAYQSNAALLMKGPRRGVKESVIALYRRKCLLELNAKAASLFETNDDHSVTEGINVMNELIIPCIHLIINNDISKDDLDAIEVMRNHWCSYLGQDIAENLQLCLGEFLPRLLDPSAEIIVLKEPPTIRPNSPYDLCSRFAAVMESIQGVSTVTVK

Row | IC50 | Structure (SMILES)
1 | 22 µM | COc1ccc(CCNC(=O)CCn2c(=O)c3ccccc3n(Cc3ccc(C)cc3)c2=O)cc1OC
2 | > 50 µM (inactive) | O=C(CN1CCCc2ccccc21)Nc1ccc(N2CCOCC2)cc1
3 | 19.7 µM | COc1ccc(NC(=O)Cn2cc(C(=O)c3ccc(F)cc3)c(=O)c3cc(C)ccc32)cc1
4 | 17 µM | COc1ccc(NC(=O)c2sc(N3CCOCC3)nc2-c2ccccc2)c(OC)c1
5 | > 50 µM (inactive) | CCCc1c(C(=O)O)c(O[C@H]2O[C@H](C)[C@@H](OC)[C@H](OC)[C@@H]2OC)cc2cc3c(c(O)c12)C(=O)c1c(O)cc(O[C@@H]2O[C@@H](C)[C@H](O[C@H]4O[C@H](C)[C@@H](OC)[C@H](OC)[C@@H]4O)[C@@H](OC)[C@H]2O)cc1C3=O
6 | 24.6 µM | Cc1ccc(C(=O)NCC(=O)Nc2nc3ccccc3[nH]2)c(C)c1
7 | 27.5 µM | O=C(Cn1c(=O)n(Cc2ccco2)c(=O)c2ccc(C(=O)NC3CCCC3)cc21)NCc1ccco1
8 | 1.95 µM | CCOc1ccc(NC(=O)Cn2c(=O)n(CCCCCC(=O)NCc3ccc(F)cc3)c(=O)c3sccc32)cc1
9 | > 50 µM (inactive) | N#Cc1cc2c(nc1SCC(=O)NCc1ccccc1)CCCC2
10 | 5.81 µM | CCOc1ccc2[nH]c3c(=O)n(CCc4ccc(OC)cc4)cnc3c2c1
11 | 10.4 µM | CCn1cnc2c(-c3ccccc3)cn(CC(=O)NCc3ccc4c(c3)OCO4)c2c1=O
12 | 33.1 µM | O=C(Nc1oc2ccccc2c(=O)c1-c1ccc2c(c1)OCO2)C1CCCCC1
13 | 2.06 µM | COCCn1c(=O)[nH]c2cc(C(=O)NCCNc3ccc([N+](=O)[O-])cc3C#N)ccc2c1=O
14 | 1.99 µM | O=C(Nc1ccc2c(c1)OCCO2)c1cccc2nc3ccccc3nc12
15 | 33.2 µM | O=C(OC1CSc2nc3ccccc3n2C1)c1ccc([N+](=O)[O-])o1 (stereo not drawn)
16 | > 50 µM (inactive) | Cc1ncc(CO)c2c1Oc1nc(-c3cccc(Cl)c3)nc(SCC(=O)N3CCCCC3)c1C2
17 | 36.1 µM | COc1cc(O)c2c(=O)c(-c3ccc(O)cc3)coc2c1
18 | 26.2 µM | COc1ccc(NC(=O)c2nnn(-c3cccc(C)c3)c2C)cc1
19 | > 50 µM (inactive) | CC1CCCN1C(=O)c1ccn(-c2ccc3ccc(-c4cccnc4)cn23)n1 (stereo not drawn)
20 | 1.69 µM | Cc1ccc(-n2nc(C(=O)Nc3ccc(C)cn3)c3ncn(C)c(=O)c32)cc1
21 | > 50 µM (inactive) | Cc1cc(C)c2nc3c(cc2c1)CN(Cc1ccco1)C(=O)O3
22 | 14.3 µM | Cc1cc(=O)n(CC(=O)Nc2ccccc2F)c(Nc2ccc(F)cc2)n1
23 | 0.516 µM | O=c1ccc(-c2noc(Cc3c(F)cccc3Cl)n2)c[nH]1
24 | 31.2 µM | NS(=O)(=O)c1cc(C(=O)OCC(=O)NC2CCCc3ccccc32)ccc1Cl (stereo not drawn)

Row | IC50 | Structure (SMILES)
25 | 36.5 µM | O=C(Cn1cncc(-c2nc(-c3ccccc3)cs2)c1=O)NC1CCCC1
26 | > 50 µM (inactive) | COc1ccc(C(=O)CSc2nnc(-c3cc4cccc(OC)c4o3)n2C)cc1OC
27 | > 50 µM (inactive) | COc1ccc(CCNC(=O)[C@H](CCSC)NC(=O)N2CCn3c2nc2ccccc23)cc1OC
28 | 1.09 µM | O=c1sc2ccccc2c(=O)n1Cc1cccc(C(F)(F)F)c1
29 | > 50 µM (inactive) | N[C@@H](Cc1ccccc1)C(=O)N1CCC2(CC1)CN(C(=O)c1ccc(Cl)cc1)CCO2
30 | 16.8 µM | Cc1cccc(NC(=O)c2noc3c2CCc2sccc2-3)n1
31 | > 50 µM (inactive) | O=C(NC1CC1)c1ccnn1-c1ccc2ccc(-c3ccncc3)cn12
32 | 32.9 µM | Cc1ccc(-c2nc(NC(=O)Nc3ccc(Cl)cc3)sc2C)cc1
33 | 11.9 µM | O=C(Nc1ccc(Cl)cc1)Nc1cccn2ncnc12
34 | > 50 µM (inactive) | Cc1cc(/C=C2/C(=N)N3C(c4ccccc4)=CSC3=NC2=O)c(C)n1-c1ccc(F)cc1
35 | 4.78 µM | COc1ccc(NC(=O)c2nnn(-c3ccccc3C)c2C)cc1OC
36 | 13 µM | COc1ccccc1CNC(=O)CCCCn1c(=O)c2ccccc2n(Cc2ccccc2C#N)c1=O
37 | 26.8 µM | Cc1nc(-c2ccccc2F)sc1C(=O)Nc1cccnc1
38 | 31.1 µM | COc1ccc(NC(=O)COc2ccc3ccc(=O)oc3c2)cc1
39 | > 50 µM (inactive) | NC(=O)Cn1c(=O)n(Cc2ccc(C(=O)NC3CCCC3)cc2)c(=O)c2ccccc21
40 | 23.7 µM | Cc1nc(NCc2ccccn2)c2cc(-c3ccccc3)sc2n1
41 | 2.83 µM | CCn1ccc2c(cc(C(=O)Nc3cccc(OC)c3)n2C)c1=O
42 | 27.2 µM | Cc1ccc(-n2nnc(C(=O)NC3CCCCC3)c2N)cc1
43 | 8.02 µM | O=C(Nc1ccc2c(c1)OCO2)c1[nH]nc2c1CCc1ccccc1-2
44 | 26.7 µM | CCN1C(SCc2ccc(F)cc2)=NS(=O)(=O)c2ccccc21
45 | 7.43 µM | O=C(Nc1ccc(-c2nnc3n2CCCCC3)cc1)c1ccc2c(c1)OCO2
46 | 36.9 µM | Cc1ccc(Cn2cc(-c3noc(-c4ccncc4)n3)nn2)cc1
47 | 25.3 µM | COc1ccc(-n2ccn3c(CCC(=O)NCc4ccc(F)cc4)nnc3c2=O)cc1
48 | 16 µM | CCOc1ccc(NS(=O)(=O)c2ccc(NC(=O)Nc3ccccc3)cc2)cc1

Row | IC50 | Structure (SMILES)
49 | > 50 µM (inactive) | COc1cccc(N2CCN(C(=O)c3cc(NC(C)=O)cc4nc(C)ccc34)CC2)c1
50 | > 50 µM (inactive) | O=C(CCC1CCCCC1)Nc1ccccc1C(=O)N1CCOCC1
51 | 20.4 µM | CC(C)(C)c1ccc(C(=O)Nc2ccc(Oc3cccnc3)nc2)cc1
52 | 14 µM | CCC(=O)Nc1ccccc1-c1nc2ccccc2n(CC(=O)Nc2cc(OC)ccc2OC)c1=O
53 | 9.83 µM | CCOc1ccc2c(c1)c(=O)c(C(=O)c1ccccc1)cn2CC(=O)Nc1ccccc1
54 | 14.6 µM | CCCCC/C=C/C=C/C(=O)OC1C(O)CC(c2ccc3c(c2O)C(=O)c2c(O)cc4cc(C)cc(O)c4c2C3=O)OC1C (stereo not drawn)
55 | > 50 µM (inactive) | O=C(Cc1ccccc1F)Nc1nc(-c2ccco2)c(-c2ccco2)s1
56 | 42.3 µM | Cc1ccc(-c2nc(-c3ccccc3)c(S(=O)(=O)CC(=O)Nc3ccc(C)c(C)c3)[nH]2)cc1
57 | 12 µM | CCc1ccc(NC(=O)COC(=O)c2n[nH]c3ccccc23)cc1
58 | 2.38 µM | O=C(COc1ccc(Cl)cc1Cl)Nc1ccccc1-c1nc2ccccc2[nH]1
59 | > 50 µM (inactive) | NS(=O)(=O)c1cccc(NS(=O)(=O)c2ccc(/C=C/C(=O)OCC(=O)c3ccc(Br)cc3)cc2)c1
60 | 12 µM | O=C(NCc1ccc2c(c1)OCO2)c1cc(-c2cc(Cl)ccc2O)n[nH]1
61 | 23.4 µM | COc1ccc(NC(=O)c2ccccc2OCC(=O)Nc2ccccc2C(F)(F)F)c(C)c1
62 | 3.7 µM | CCC(=O)Nc1ccc(-c2nc(Cn3cc(C)cn3)c(C)o2)cc1
63 | > 50 µM (inactive) | COc1cc2c(cc1OC)C(COc1ccccc1OC)N(C(=O)c1ccc3ccccc3c1)CC2 (stereo not drawn)
64 | 31.3 µM | Cn1c(SCc2ccccc2)nnc1-c1csc(-c2ccccc2)n1
65 | > 50 µM (inactive) | COc1ccc(C(=O)CSc2ccc3nnc(CCNC(=O)c4ccc(OC)cc4)n3n2)cc1
66 | > 50 µM (inactive) | Cc1ccc(CNC(=O)c2cnc3ccccc3n2)cc1
67 | 19.4 µM | O=C(CCSc1ccc(Cl)cc1)c1cccs1
68 | 29.3 µM | O=C(COC(=O)Cn1cnc2ccccc21)Nc1ccc2c(c1)OCCO2
69 | 44.3 µM | CCOc1cccc(NC(=O)c2ccc(S(=O)(=O)N3CCc4ccccc4C3)cc2)c1
70 | 33 µM | COc1ccc(-c2cc3c(=O)n(CC(=O)Nc4ccccc4F)ccn3n2)cc1OC
71 | 6.37 µM | Cc1cc(NC(=O)c2[nH]nc3c2CCc2ccccc2-3)no1
72 | > 50 µM (inactive) | O=C(CSc1ncnc2c1sc1cccc(F)c12)N1CCCCCC1

Row | IC50 | Structure (SMILES)
73 | 4.26 µM | COc1cc(-c2ccno2)ccc1S(=O)(=O)Nc1ccccc1Cl
74 | 22.2 µM | O=C(Cn1cnc2c(oc3ccccc32)c1=O)NCc1ccccc1Cl
75 | 20.2 µM | COc1cccc(-n2c(CNCc3cccnc3)nc3ccc([N+](=O)[O-])cc3c2=O)c1
76 | 20.1 µM | O=C1c2c(O)cccc2C2(Oc3cccc4cccc(c34)O2)C2OC12 (stereo not drawn)
77 | 27.4 µM | COc1cccc(-n2ccc(=O)c(-c3nc(-c4ccccc4Cl)no3)n2)c1
78 | 9.89 µM | Cc1noc(-c2cc(=O)n(CC(=O)NCc3ccccc3F)c3ccccc23)n1
79 | 15.6 µM | O=C(CNc1ccc(F)c(Cl)c1)Nc1ccc2c(c1)OCCO2
80 | 2.15 µM | Cc1ccc(CNC(=O)CCCn2c(=O)c3sccc3n(CC(=O)OCc3ccccc3)c2=O)cc1
81 | > 50 µM (inactive) | CO[C@H]1/C=C/OC2(C)Oc3c(C)c(O)c4c(c3C2=O)C2(C=C(NC(=O)/C(C)=C\C=C\[C@H](C)[C@H](O)[C@@H](C)[C@@H](O)[C@@H](C)[C@H](OC(C)=O)C1C)C4=O)OCC(=O)O2 (stereo partly drawn)
82 | 9.07 µM | COc1ccccc1CNC(=O)C1CCCN(c2nc3ccsc3c(=O)s2)C1 (stereo not drawn)
83 | > 50 µM (inactive) | COc1cccc2c1OCC(NS(=O)(=O)c1cc(C)ccc1C)C2 (stereo not drawn)
84 | 2.78 µM | COC(=O)c1ccc(C(=O)Nc2cc3ccccc3cc2NC(=O)c2ccc(C(=O)OC)cc2)cc1
85 | > 50 µM (inactive) | Cc1nc(CN2CCn3c(Cn4cccn4)cnc3C2C)cs1 (stereo not drawn)
86 | > 50 µM (inactive) | COc1ccccc1OCC(=O)Nc1ccc2c(c1)CCC(=O)N2Cc1ccccc1
87 | 36.9 µM | O=C(Cc1cccc2ccccc12)Nc1nc2ccc(F)cc2s1
88 | 16.5 µM | Cc1ccc(-c2cn(CC(=O)N3CCN(c4ccccn4)CC3)c(=O)o2)cc1
89 | > 50 µM (inactive) | COc1cccc2sc(N3CCN(c4nc5ccccc5s4)CC3)nc12
90 | > 50 µM (inactive) | COc1ccc(S(=O)(=O)N2CCN3Cc4ccccc4N(C)CC3C2)cc1 (stereo not drawn)
91 | 1.52 µM | CN(Cc1ccccc1)S(=O)(=O)c1ccc2[nH]cc(C(=O)NCc3cccs3)c(=O)c2c1
92 | > 50 µM (inactive) | CNC(=O)C1CN(C(=O)c2ccc(OC)cc2)CC12CCCC2 (stereo not drawn)
93 | 0.547 µM | COc1ccc(Cl)cc1NC(=O)c1cc(-c2ccccn2)n[nH]1
94 | 8.27 µM | Cc1ccc(C(=O)Nc2cc3c4c(c2)CC(=O)N4CCC3)cc1

Row | Structure (SMILES) | IC50
95 | O=C1c2c(O)c(Cl)cc3c2[C@@]2(Oc4cc(Cl)c(O)c5c4[C@]3(O2)[C@@H]2O[C@@H]2C5=O)[C@@H]2O[C@H]12 | 0.495 µM
96 | CC[C@@]1(O)C[C@H](OC2CC(N(C)C)C(OC3CC(O)C(OC4CCC(=O)C(C)O4)C(C)O3)C(C)O2)c2c(cc3c(c2O)C(=O)c2c(O)ccc(O)c2C3=O)[C@H]1C(=O)OC (stereo partly drawn) | 4.26 µM
97 | CCOC(=O)[C@@H]1[C@@H](c2ccccc2)CN2CCN(C(=O)c3cnccn3)C[C@H]12 | > 50 µM (inactive)
98 | CCC(CC)n1[nH]c(=O)c2c1NC(=O)CSC2c1ccc2c(c1)OCO2 (stereo not drawn) | 18.6 µM
